Measured values reported in US5750754A, “Heterocyclic compounds” (Zeneca Limited, priority 1993, dated 1998).
Counter-ions that a name gives are not always drawn. Like-named read-outs stand apart in the source and are kept apart here.

Experiments:
[1] = biological target: T1, human, citrated, platelet-rich plasma (Homo sapiens, UniProt P05106+P08514); assay: Test (a): inhibition of ADP stimulated platelet aggregation (Born); format: cell-based; settings: ADP induced aggregation of human platelet-rich plasma
T1 construct: aggregating human, citrated, platelet-rich plasma; endogenous in cells; host or cells: human platelets in citrated platelet-rich plasma
T1 sequence (P08514 32-887 limits assumed): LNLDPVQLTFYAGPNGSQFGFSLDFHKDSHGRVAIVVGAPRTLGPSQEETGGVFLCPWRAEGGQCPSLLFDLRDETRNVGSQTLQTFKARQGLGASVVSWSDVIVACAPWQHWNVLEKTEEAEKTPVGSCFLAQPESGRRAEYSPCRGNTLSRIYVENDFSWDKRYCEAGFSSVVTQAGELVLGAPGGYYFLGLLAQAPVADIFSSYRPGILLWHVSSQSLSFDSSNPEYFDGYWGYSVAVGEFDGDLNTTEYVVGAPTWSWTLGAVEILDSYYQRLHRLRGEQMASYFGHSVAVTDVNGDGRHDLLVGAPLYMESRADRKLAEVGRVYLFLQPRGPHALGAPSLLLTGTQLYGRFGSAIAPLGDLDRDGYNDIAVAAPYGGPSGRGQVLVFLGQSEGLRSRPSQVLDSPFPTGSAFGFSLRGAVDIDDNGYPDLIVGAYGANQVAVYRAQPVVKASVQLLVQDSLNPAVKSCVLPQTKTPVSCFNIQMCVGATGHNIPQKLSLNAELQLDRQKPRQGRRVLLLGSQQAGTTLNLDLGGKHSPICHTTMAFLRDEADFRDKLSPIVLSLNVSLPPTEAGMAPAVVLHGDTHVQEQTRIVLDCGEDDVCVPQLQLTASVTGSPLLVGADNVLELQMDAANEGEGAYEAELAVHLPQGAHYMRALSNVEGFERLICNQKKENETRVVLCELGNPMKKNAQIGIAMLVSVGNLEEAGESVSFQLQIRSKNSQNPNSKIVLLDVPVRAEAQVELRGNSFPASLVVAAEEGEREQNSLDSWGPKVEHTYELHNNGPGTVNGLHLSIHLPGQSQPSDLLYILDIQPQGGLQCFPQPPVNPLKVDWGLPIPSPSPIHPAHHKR
T1 sequence (P08514 891-1039 limits assumed): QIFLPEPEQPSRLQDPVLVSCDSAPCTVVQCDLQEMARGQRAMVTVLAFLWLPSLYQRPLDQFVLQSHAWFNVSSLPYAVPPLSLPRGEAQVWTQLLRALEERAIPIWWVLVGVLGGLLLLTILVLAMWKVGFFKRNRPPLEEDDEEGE
T1 sequence (P05106 27-788): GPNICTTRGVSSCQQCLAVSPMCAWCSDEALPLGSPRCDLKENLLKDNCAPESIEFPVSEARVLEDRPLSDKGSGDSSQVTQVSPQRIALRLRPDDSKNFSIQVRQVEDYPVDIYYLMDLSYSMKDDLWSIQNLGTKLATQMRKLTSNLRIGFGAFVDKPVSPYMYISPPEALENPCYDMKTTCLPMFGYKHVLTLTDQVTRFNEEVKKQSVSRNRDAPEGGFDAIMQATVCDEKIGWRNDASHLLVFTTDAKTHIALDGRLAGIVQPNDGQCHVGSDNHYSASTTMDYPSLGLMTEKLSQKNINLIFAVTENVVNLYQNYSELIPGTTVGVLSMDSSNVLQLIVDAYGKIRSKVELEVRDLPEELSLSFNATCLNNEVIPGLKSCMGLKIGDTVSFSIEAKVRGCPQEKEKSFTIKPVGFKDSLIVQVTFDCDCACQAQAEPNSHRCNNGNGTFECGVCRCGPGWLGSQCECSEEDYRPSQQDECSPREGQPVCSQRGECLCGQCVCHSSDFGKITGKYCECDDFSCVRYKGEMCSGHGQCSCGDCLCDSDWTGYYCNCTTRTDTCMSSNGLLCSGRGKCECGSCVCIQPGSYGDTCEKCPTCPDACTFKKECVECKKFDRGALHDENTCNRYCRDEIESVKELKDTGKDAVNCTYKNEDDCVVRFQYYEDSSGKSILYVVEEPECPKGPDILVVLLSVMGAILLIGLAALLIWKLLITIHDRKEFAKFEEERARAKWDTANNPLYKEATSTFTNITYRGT
In short: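 ADP added to human citrated platelet-rich plasma to build aggregation dose-response curves, repeated with increasing test compound (generally 10-^5 M to 10-^10 M). pA2 derived from the 50% response value for ADP with vs. without compound, averaged over several concentrations.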

[2] = biological target: T2, purified human platelet fibrinogen receptor (GPIIb/IIIa) (Homo sapiens, UniProt P05106+P08514); assay: Test (b): GPIIb/IIIa ELISA, inhibition of biotinylated fibrinogen binding; settings: purified human platelet GPIIb/IIIa, ELISA
T2 construct: is isolated from human platelet lysates; from tissue
T2 sequence (P08514 32-887 limits assumed): as the sequence (P08514 32-887 limits assumed) above
T2 sequence (P08514 891-1039 limits assumed): as the sequence (P08514 891-1039 limits assumed) above
T2 sequence (P05106 27-788): as the sequence (P05106 27-788) above
Protocol: (i) Preparation of human platelet lysates.
Platelet rich plasma (PRP) is harvested by centrifugation (1000 rpm, 15 mins) of whole blood anticoaoulated with acid citrate dextrose (trisodium citrate 85 mM, citric acid 70 mM, d-glucose 110 mM) 1 part to 6 parts blood. Prostacyclin (PGI2, 1 μM) is added to the PRP before centrifugation (2400 pm, 15 mins) and the resulting pellet is resuspended in modified Tyrodes' solution (NaCl 130 mM, KCl 26 mM, NaHCO3 12 mM, NaH2 PO4 0.5 mM, MgCl2 1 mM, CaCl2 20 mM, Glucose 12 mM, HEPES 5 mM) containing bovine serum albumin 3.5 g/L, PGI2 1 μM and hirudin 0.5 U/ml. The platelet suspension is centrifuged (2400 rpm, 15 mins) and the resultant pellet resuspended in 500 μl of lysis buffer (octyl glucoside 50 mM, HEPES 10 mM, NaCl 150 mM, CaCl2 1 mM, MgCl2 1 mM, PMSF 1 mM, NEM 10 mM, leupeptin 0.1 mM), agitated at 4° C. for 15 minutes then centrifuged at 24000 rpm, 15 mins. The supernatant is stored at 4° C. and the pellet re-suspended in 500 μl of lysis buffer. The centrifugation process is repeated a further 3 tlimes, the pooled supernatants being stored at -70° C.
(ii) Receptor purification.
GP Ilb/Ila is isolated from human platelet lysates using a 2 ml peptide (KYGRGDS) coupled CNBr activated Sepharose affinity column. A 1.5 ml volume of platelet lysate is placed on the column and allowed to stand overnight at 4° C. Buffer (30 mls, octyl gluicoside 25 mM, HEPES 10 mM, NaCl 150 mM, CaCl2 1 mM, MgCl2 1 mM, PMSF 1 mM, NEM 10 mM, leupeptin 0.1 mM) is passed through the column and 2 ml fractions are collected throughout. GPIIb/IIIa is eluted with 12 mls of buffer containing HHLGGAKQAGDV (2 mg/ml, pH 7.5), the column is washed using 4 mls buffer and the remaining GPIIb/IIIa eluted using 12 mls buffer containing GRGDSPG (1 mg/ml pH 7.5). The column is finally washed using 20 mls of buffer and can be used for up to three such preparations. Fractions containing FGPIIb/IIIa are identified using gel electrophoresis and immunoblotting, pooled and stored at -70° C.
96 well microtitre plates are coated with 100 μl purified human platelet fibrinogen receptor (GPIIb/IIIa) diluted in coating buffer (Tris-HCl 20 mM, NaCl 150 mM, CaCl2 1 mM, pH 7.4) and left overnight at 4° C. The plates are washed using washing buffer (Tris-HCl 50 mM, NaCl 100 mM, CaCl2 2 mM, pH 7.4) and non-specific binding, blocked by the addition of 200 μl 2% BSA (2 hours, 30° C.). The plates are washed prior to incubation (2 hours, 30° C.) with 100 μl biotinylated fibrinogen ([…]) containing either vehicle or test compound. The plates are washed, incubated with streptavidin (5 μg/ml, 1 hour, ambient temperature), then washed again before the addition of 100 μl biotinylated horse radish peroxidase (0.1 μg/ml, 1 hour, ambient temperature). The plates are then washed and equal volumes of peroxidase substrate (3, 5, tetramethyl benzidine 0.4 g/l) and H2 O2 (0.02%) are mixed together immediately before addition of 150 μl to each well. Colour is allowed to develop for 10-15 mins before optical densities are read at 650 nm.
The concentration of compound required to cause 50% inhibition of biotinylated fibrinogen binding, is calculated and expressed as a pIC50 (-log(IC50)).

[3] = read-out: Test (a): pA2 value indicating potency of platelet aggregation inhibition (converted)
[4] = read-out: Test (b): pIC50 (-log(IC50)), 50% inhibition of biotinylated fibrinogen binding to GPIIb/IIIa (converted)
[5] = Test (a): pA2 value indicating potency of platelet aggregation inhibition
[6] = Test (b): pIC50 (-log(IC50)), 50% inhibition of biotinylated fibrinogen binding to GPIIb/IIIa

Compound | Kb [1, 3] [nM] | IC50 [2, 4] [nM] | Kb [1, 5] [nM] | IC50 [2, 6] [nM]
COC(=O)CCCc1ccc(CN2CCN(c3ccncc3)CC2)cc1 [Example 178, Methyl 4-[4-[4-(4-pyridyl)piperazin-1-yl]methylphenyl]butyrate] | 3160 | 1000 |  | 
O=C(N[C@@H](Cc1ccccc1)C(=O)O)c1ccc(N2CCN(c3ccncc3)CC2)cc1 [Example 191] | > 100000 | 3980 |  | 
CN(CC(=O)O)C(=O)c1ccc(N2CCN(c3ccncc3)CC2)cc1 [Example 189, N-[4-[(4,4Pyridyl)piperazin-1-yl]benzoyl]-N-methylglycine, trifluoroacetate] |  |  | 1260 | 316
Cc1ccc(S(=O)(=O)NCCc2ccc(NC(=O)C3CCN(c4ccncc4)CC3)cc2)cc1 [Example 184, N-[2-[4-[1-(4-Pyridyl)piperidin-4-yl]carboxamidophenyl]ethyl]-4-methylphenylsulphonamide] | 5010 | > 100000 |  | 
COC(=O)COc1ccc(NC(=O)N2CCN(c3ccncc3)CC2)cc1 [Example 63, Methyl 4-[[4-(4-pyridyl)piperazin-1-yl]carboxamido]phenoxy acetate] | 126 | 316 |  | 
COC(=O)COc1ccc(C(=O)C(C)CN2CCN(c3ccncc3)CC2)cc1 (racemic) [Example 177, RS Methyl 4-[3-[4-(4-pyridyl)piperazin-1-yl]-2-methylpropanoyl]-phenoxyacetate] | 1580 | 79400 |  | 
O=C(O)COc1ccc(NC(=O)CC2CCN(c3ccncc3)CC2)cc1 [Example 166, 4-[2-[1-(4-Pyridyl)piperidin-4-yl]acetamido]phenoxyacetic acid dihydrochloride] | 1580 | 316 |  | 
O=C(O)COc1ccc(OCCC2CCN(c3ccncc3)CC2)cc1 [Example 160, 4-[2-[1-(4-Pyridyl)piperidin-4-yl]ethoxy]phenoxyacetic acid] | 794 | 15.8 |  | 
COC(=O)COc1ccc2c(c1)CCC(N1CCN(c3ccncc3)CC1)C2=O (centres unmarked) [Example 80, Methyl 2-[4-(4-pyridyl)piperazin-1-yl]tetralone-6-oxyacetate] |  |  | 251 | 398
CCCCS(=O)(=O)N[C@@H](Cc1ccc(OCCC2CCN(c3ccncc3)CC2)cc1)C(=O)OC [Example 35, Methyl 2-S-(n-butylsulphonylamino)-3-[4-[2-[1-(4-pyridyl)piperidin-4-yl]ethoxy]phenyl]propionate] | 398 | 63.1 |  | 
CCCCS(=O)(=O)N[C@H](Cc1ccc(OCC2CCN(c3ccncc3)CC2)cc1)C(=O)OC [Example 100, Methyl 2-R-(n-butylsulphonylamino)-3-[4-[1-(4-pyridyl)piperidin-4-yl]methoxyphenyl]propionate] | 39800 | 3980 |  | 
CCCCS(=O)(=O)NCc1ccc(NC(=O)C2CCN(c3ccncc3)CC2)cc1 [Example 170, N-[4-[4-[1-(4-Pyridyl)piperidin-4-yl]carboxamidophenyl]-methyl]-1-butanesulphonamide] | 15800 | > 100000 |  | 
O=C(O)CCCOc1ccc(N2CCN(c3ccncc3)CC2)cc1 [Example 51, 4-[4-[4-(4-Pyridyl)piperazin-1-yl]phenoxy]butyric acid] | 12.6 to 100 | 3.98 to 25.1 |  | 
O=C(O)CCNC(=O)c1ccc(N2CCN(c3ccncc3)CC2)nc1 [Example 70, 3-[6-[4-(4-Pyridyl)piperazin-1-yl]pyrid-3-ylcarboxamido]propionic acid] | 79.4 | 15.8 |  | 
COC(=O)COc1ccc(C(=O)CN2CCN(c3cc(C)nc(C)c3)CC2)cc1 [Example 153, Methyl [2-[4-(2,6-dimethylpyrid-4-yl)piperazin-1-yl]acetyl]phenoxyacetate, hydrobromide] | 15800 | 50100 |  | 
COC(=O)CCc1ccc(C(=O)CN2CCN(c3ccncc3)CC2)cc1 [Example 11, Methyl 3-[4-[2-[4-(4-pyridyl)piperazin-1-yl]acetyl]phenyl]propionate] | 2000 | 39800 |  | 
COC(=O)[C@H]1CC[C@H](Oc2ccc(N3CCN(c4ccncc4)CC3)cc2)CC1 [Example 230, Trans-methyl-4-[4-[4-(4-pyridyl)piperazin-1-yl]phenoxy]cyclohexyl carboxylate] | 10000 | 5010 |  | 
CCCCS(=O)(=O)NC(Cc1ccc(CN2CCN(c3ccncc3)CC2)cc1)C(=O)O (racemic) [Example 68, 2-RS-(n-Butylsulphonylamino)-3-[4-(4-pyridyl)piperazin-1-ylmethylene]phenylpropionic acid] | 316 | 12.6 |  | 
O=C(CN1CCN(c2ccncc2)CC1)c1ccc2oc(C(=O)O)cc2c1 [Example 26, 5-[2-[4-(4-Pyridyl)piperazin-1-yl]acetyl]benzofuran-2-carboxylic acid] | 1580 | 631 |  | 
O=C(O)C[C@H](NC(=O)c1ccc(N2CCN(c3ccncc3)CC2)cc1)C(=O)NCCc1ccccc1 [Example 192, (S)-3-[N-[2-Phenenthyl]carboxamido]-3-[4-[4-(4-pyridyl)piperazin-1-yl]]-benzamidopropionic acid] | > 100000 | 251 |  | 
COC(=O)COc1ccc(C(=O)CCN2CCN(c3ccncc3)CC2)cc1 [Example 7, Methyl 4-[3-[4-(4-pyridyl)piperazin-1-yl]propanoyl]phenoxyacetate] | 501 | 3980 to 6310 |  | 
CC(C)(C)OC(=O)COC1CCN(C(=O)CN2CCN(c3ccncc3)CC2)CC1 [Example 106] | 15800 | 39800 |  | 
CCCCS(=O)(=O)NC(CC1CCN(C(=O)CN2CCN(c3ccncc3)CC2)CC1)C(=O)OCC (racemic) [Example 110, Ethyl 2RS-(n-butylsulphonylamino)-3-[1-[2-[4-(4-pyridyl)piperazin-1yl]-acetyl]piperidin-4-yl]propanoate] | 6310 | > 100000 |  | 
COC(=O)COc1ccc(C(=O)CN2CCN(c3ccncc3)CC2)c2ccccc12 [Example 117] | 12600 | 3980 |  | 
COC(=O)[C@H](Cc1ccc(OCCC2CCN(c3ccncc3)CC2)cc1)NS(=O)(=O)c1ccc(C)cc1 [Example 87, Methyl 2-S-(4-methylphenylsulphonylamino)-3-[4-[2-[1-(4-pyridyl)piperidin-4-yl]ethoxy]phenyl]propionate] | 2510 | 63.1 |  | 
Cc1cc(OCC(=O)O)ccc1C(=O)CN1CCN(c2ccncc2)CC1 [Example 125, 4-[2-[4-(4-Pyridyl)piperazin-1-yl]acetyl]-3-methylphenoxyacetic acid, dihydrochloride] | 158 | 15.8 |  | 
O=C(O)COc1ccc(OC2CCN(c3ccncc3)CC2)cc1 [Example 156, 4-[1-(4-Pyridyl)piperidin-4-yl]oxyphenoxyacetic acid] | 20000 | 1580 |  | 
O=C(O)COc1ccc(C(=O)NCC2CCN(c3ccncc3)CC2)cc1 [Example 168] | 794 | 398 |  | 
